Assay results from US12422427B2, “Compounds for treatment of diseases and methods of screening therefor” (Max-Planck-Gesellschaft zur Förderung der Wissenschaften …, priority 2018, dated 2025).
“Also recorded” adds a separate entry of the source.

Columns and labels:
[1] = system: liquid-like non-membrane bound compartments; conditions: cited from earlier work
[2] = system: EWSR1, TIAL1, PABPC1, G3BP1; assay: Panel of HeLa lines expressing GFP-labelled stress granule proteins, arsenate stress; assay type: cell-based; conditions: 1 mM arsenate, 10 μM compound
Procedure: It was anticipated that a useful therapeutic would prevent all PLD-containing stress granule proteins from localising to stress granules. The inventors used 1 mM arsenate to stress a panel of HeLa cell lines expressing GFP fusions of stress granule proteins (EWSR1, TIAL1, PABPC1, G3BP1) with either no treatment or 10 μM lipoic acid or lipoamide.
Compound effects were assessed under a variety of conditions in HeLa or iPS cells expressing wild-type or P525L FUS GFP by live cell imaging. Different combinations of 1 h pre-treatment compound or pre-stress with arsenate followed by 1 h treatment with compound and/or stress with arsenate. Unless otherwise indicated, cells were pre-treated for 1 h using 10 μM compound from 10 mM stock in DMSO (or an equal volume of DMSO control) then stressed for 1 h with 1 mM potassium arsenate still in the presence of compound. GFP fluorescence was imaged by widefield epifluorescence using an inverted Olympus IX71 microscope with an Olympus 100× NA 1.4 Plan Apo oil immersion objective and a CoolSNAP HQ CCD camera (Photometrics), using a DeltaVision climate control unit (37° C., 5% CO2) (Applied Precision). The kinetics of pre-stress followed by treatment was analysed from images captured at 2 min intervals for 100 min, for single time points images were captured after 1 h unless otherwise indicated.

PAB-1 = assay: Protein aggregation in C. elegans: PAB-1; assay type: in vivo, Caenorhabditis elegans; conditions: liquid culture from L4, scored day 2 of adulthood
Procedure: The effect of lipoic acid on stress granule protein aggregation in vivo was analysed using a C. elegans model for stress granule formation and aggregation. As previously described, fluorescent-tagged PAB-1 forms abundant stress granules and large solid aggregates during aging or upon chronic stress. RHO-1 and KIN-19 also aggregate during aging, but are not RNA binding or stress granule proteins. Three lines were used: Fluorescently tagged PAB-1 (DCD214: N2; uqIs24[pmyo-2::tagrfp::pab 1gene]), KIN-19 (CF3649: N2; muIs 209[pmyo-3::kin-19::tagrfp+ptph-1::GFP] and RHO-1 (DCD13: N2; uqIs9 [pmyo-2::rho-1::tagr fp+ptph-1::gfp]). Each were analysed as below, except DCD13 were maintained at 20° C.
The animals were exposed to lipoic acid in liquid culture in a 96 well plate starting from larval stage L4 in a total volume of 50 μl S-Complete per well (100 mM NaCl, 50 mM Potassium phosphate pH 6, 10 mM potassium citrate, 3 mM MgSO4, 3 mM CaCl2), 5 μg/mL cholesterol, 50 μM ethylenediaminetetraacetic acid (EDTA), 25 μM FeSO4, 10 μM MnCl2, 10 μM ZnSO4, 1 μM CuSO4) supplemented with heat-killed OP50 and 50 μg/ml carbenicillin. […] Toxicity was evaluated from the number of dead or aberrantly small-sized animals.
48 h after switching the L4s from 20° C. to 25° C. […] After immobilization with 2 mM levamisole aggregation was scored using a fluorescent stereo microscope (Leica M165 FC, Plan Apo 2.0× objective). […]

[3] = system: HeLa cells expressing FUS GFP; assay: Stress granule formation in HeLa FUS GFP cells under different stresses; assay type: cell-based; conditions: 10 μM; mitochondrial (rotenone), hyperosmotic (sorbitol) or arsenate stress
Procedure: The stressor, arsenate, will react with the thiol groups of lipoamide. Therefore, to exclude the possibility that lipoamide is acting only by removing the stressor, so it was further tested whether lipoic acid can prevent stress granule formation triggered by other stresses than arsenate (an oxidative) stress: Mitochondrial electron transport chain inhibition (rotenone), heat stress (42° C.), hyperosmotic stress (sorbitol, a non-metabolisable sugar), glycolysis inhibition ([…] in the absence of glucose) or serum starvation.
Various cellular stresses were achieved by replacing 1 h 1 mM potassium arsenate treatment with other conditions: 100 μM rotenone (R8875, Sigma Aldrich) from a 1 M stock in DMSO for 2 h (mitochondrial stress). […] Sorbitol (S1876, Sigma Aldrich) from a 4 M stock in H2O for 1 h (osmotic stress). 42° C. in normal growth medium for 30 m (heat stress). […] Appropriate solvent controls were used.

[4] = system: HeLa cells expressing FUS GFP; assay: HeLa cell compound dose responses (FUS GFP, arsenate stress); assay type: cell-based; conditions: 1 h 1 mM arsenate stress
Procedure: Small dilution steps rather than concentration replicates were selected as it provides greater statistical power from a set number of samples. Final DMSO concentration was 0.08% in all samples, and each plate included at least 12 control wells with 0.08% DMSO. Cytoplasmic FUS droplet number and nuclear/cytoplasm partition of FUS were analysed using custom macros in ImageJ. Nuclei were identified by intensity thresholding of the blue fluorescence image following a 5 px Gaussian blur. Cytoplasmic FUS droplets by intensity thresholding of the green image following a 10 px weight 0.9 unsharp filter masked by the thresholded nuclei, and nuclear FUS droplets by intensity thresholding of the green image following a 5 px weight 0.9 unsharp filter and 10 px rolling ball background subtraction masked to only include thresholded nuclei. The ratio of cytoplasmic FUS drops to nuclei was taken as cytoplasmic FUS droplets per cell per field of view, and p, the ratio of partition of FUS to the nucleus and the cytoplasm, was derived from a=Vn/vt, the ratio of nuclear to total green signal per field of view, where p=a/(1−a). […] Six fields of view were captured and analysed per condition.

Row | Compound | concentrations required for in vitro or cellular activity [1] | toxicity at active concentrations [1] | localisation of EWSR1, TIAL1, PABPC1, G3BP1 GFP to stress granules [2] | proportion of animals with aggregation of PAB-1 (PAB-1) | stress granule formation [3] | EC50 reducing stress granule number, compared among compounds [4]
1 | OCCCCCCO [1,6-hexanediol] | 1-10% | rapidly toxic | – | – | – | –
2 | S-(−)-lipoic acid | – | – | localised to stress granules in the absence of treatment, and not in the presence | dose-dependent decrease; also recorded: strong dose-dependent reduction | reduced stress granule formation | comparable EC50; also recorded: very similar activity
3 | O=C(O)CCCC[C@@H]1CCSS1 [R-(+)-lipoic acid] | – | – | localised to stress granules in the absence of treatment, and not in the presence | dose-dependent decrease; also recorded: strong dose-dependent reduction | reduced stress granule formation | comparable EC50
